Data set [1] in a line: Thermodynamic relationship between Form 1 and Form 2 calculated from DSC melting data (method of Lian Yu). The conditions noted are these: for transition temperature: Form 2 T=110.35° C., ΔH=83.43 J/g; for thermodynamic relationship between the polymorphs (monotropic or enantiotropic): based on DSC data. Type of data set: physicochemical. On the procedure: For a polymorphic substance, a property of particular interest is the relative thermodynamic stability of the polymorphs. The questions to be answered are the following:
b) for an enantiotropic system, where (Tt) lies.
The thermodynamic relationship between Form 1 and Form 2 of compound of Formula (I) was calculated using the melting data of polymorphs measured by DSC, according to what disclosed in: Lian Yu, Journal of Pharmaceutical Science, Vol. 84, No. 8, August 1995.
Taking samples of Form 1 and Form 2 as pure forms 1 and 2 respectively, and using the melting point and the ΔH obtainable by DSC data, it was possible to calculate the thermodynamic relationship and the transition temperature.
The above calculation has been performed using DSC data for a different sample of polymorph Form 1 of compound of Formula (I), showing the Differential Scanning Calorimetry (DSC) thermogram of FIG. 7, obtained by the same method discussed above.

Data set [2] can be described thus: Slurry conversion of a mixture of the two polymorphs, solid examined by XRPD. The settings on record: 20.4 mg Form 1 + 21.3 mg Form 2 in saturated ethyl acetate/heptane=1/2 solution of Form 1, stirred at RT one day. In kind it is physicochemical. How it is done: A saturated solution in ethyl acetate/heptane=½ of Form 1 of compound of Formula (I) (25 mg in 400 μL) was prepared.
20.4 mg of solid Form 1 of compound of Formula (I) were mixed with 21.3 mg of solid Form 2 of compound of Formula (I). That solid mixture was added to the above saturated solution. The slurry so obtained was stirred at RT one day long. The day after, the solid and liquid phase were separated by centrifugation, and the solid was simply left on air in order to dry and then examined by XPRD.

[3] abbreviates: Form 1 sample of FIG. 6 (T=102.44° C., ΔH=71.18 J/g).
Where [4] appears, read: Form 1 sample of FIG. 7 (T=100.09° C., ΔH=75.46 J/g).

For `CC[C@H](Nc1cc(C)nc2c(-c3ccc(OC)cc3C)c(C)nn12)c1nc(C)no1` [Form 2, [3-(4-methoxy-2-methyl-phenyl)-2,5-dimethyl-pyrazolo[1,5-a]pyrimidin-7-yl]-[(S)-1-(3-methyl-[1,2,4]oxadiazol-5-yl)-propyl]-amine], the values for the transition temperature in data set [1] (setting [3]) and in data set [1] (setting [4]) were 177 °C and 356 °C, respectively. Moreover, the “thermodynamic relationship between the polymorphs (monotropic or enantiotropic)” value in data set [1] is on record as “monotropic relationship”. Moreover, the “solid form after slurrying a mixture of Form 1 and Form 2” value in data set [2] was “the solid was only constituted by Form 2”.

For `CC[C@H](Nc1cc(C)nc2c(-c3ccc(OC)cc3C)c(C)nn12)c1nc(C)no1` [Form 1, [3-(4-Methoxy-2-methyl-phenyl)-2,5-dimethyl-pyrazolo[1,5-a]pyrimidin-7-yl]-[(S)-1-(3-methyl-[1,2,4]oxadiazol-5-yl)-propyl]-amine], the values for the transition temperature in data set [1] (setting [3]) and in data set [1] (setting [4]) were 177 °C and 356 °C, respectively. For the same compound, the “thermodynamic relationship between the polymorphs (monotropic or enantiotropic)” value in data set [1] was “monotropic relationship”.

Source of the values: patent publication US8088779B2, “Pyrazolo [1,5-alpha] pyrimidinyl derivatives useful as corticotropin-releasing factor (CRF) receptor antagonists” (SmithKline Beecham (Cork) Limited, priority 2005, dated 2012).
